Starred links: 1 amine or outer side, 2 acyl side, 3 side chain; linkers in the order of their positions; H or OH if unused. Positions of bridges follow the written chain, without caps; N, C: chain ends. Non-standard residues stand in square brackets, D forms with d. Residues, ends and D or L forms follow the SMILES beside them. Chains are numbered I, II in the order given. No end group written: not given here. Actinocin(9to1) = Cc1c2oc3c(C)ccc(C(=O)[*:1])c3nc-2c(C(=O)[*:2])c(N)c1=O; NMeV = CN[C@H](C(=O)O)C(C)C; Sar = CNCC(=O)O
Tests used:
MLO-Y4 osteocytic cells [1] = assay: Quantification of apoptotic cells (nuclear morphology, nGFP) in MLO-Y4 osteocytic cells; assay type: cell-based, murine; conditions: for effect on dexamethasone (glucocorticoid)-induced apoptosis: inhibitor added 30 minute before dexamethasone 10^−6 M, 6 hour treatment
Description: The murine long bone-derived osteocytic cell line MLO-Y4 was kindly provided by Dr. Lynda Bonewald (University of Missouri-Kansas City, Kansas City, Mo.). Cells were cultured in phenol red-free AMEM supplemented with 2.5% FBS, 2.5% bovine calf serum, 100 U/ml penicillin and 100 μg/ml streptomycin. Cells were plated at 1-2×10^4 cells/cm^2 on collagen type I (Sigma Chemical Co., St. Louis, Mo.) coated plates, as described previously (Kato,Y. et al., J. Bone Min.Res., 12:2014-2023 (1997)).
MLO-Y4 cells stably expressing nuclear green fluorescent protein (nGFP) were obtained using the retroviral vector containing the nGFP, provided by Dr. Charles O'Brien (University of Arkansas for Medical Sciences, Little Rock, Ark.). The SV40 large T antigen nuclear localization sequence (Kalderon,D., et al., Cell, 39:499-509 (1984)) was attached to the carboxy-terminus of the cDNA construct encoding nGFP and subcloned into the pLXSN retroviral vector (Clontech, Palo Alto, Calif.). The plasmid harboring the retroviral construct was transiently transfected into the packaging cell line Phoenix Eco (Grignani, F. et al., Cancer Res. 58:14-19 (1998)) using SuperFect (Qiagen, Santa Clarita, Calif.). Supernatants containing retroviral particles were collected 24-48 h after transfection, and used immediately to infect cell cultures. Subconfluent MLO-Y4 osteocytic cells were exposed to viral supernatants in the presence of 8 μg/ml polybrene for 8 h and then incubated in fresh culture medium for 16 hours. Subsequently, cells were exposed to the supernatants containing the viral particles once more before being trypsinized and plated at low density. Transduced cells were selected by culturing them in the presence of 400 μg/ml of geneticin (G418, Sigma Chemical Co., St. Louis, Mo.) for three weeks (Plotkin,L. I., et al., J. Clin. Invest. 104:1363-1374 (1999)).
Apoptosis was induced in semiconfluent cultures by treatment for the indicated times with the glucocorticoid, dexamethasone (10^−6 M, Sigma Chemical Co., St. Louis, Mo.) or with etoposide (50 μM, Sigma Chemical Co., St. Louis, Mo.). Inhibitors were added 30 minute before the addition of the pro-apoptotic agent at the following concentrations: the RNA synthesis inhibitor actinomycin D (2×10^−6M, Sigma Chemical Co., St. Louis, Mo.), the protein synthesis inhibitor cycloheximide (10^−6 M, Sigma Chemical Co., St. Louis, Mo.), the MEK inhibitor PD98059 (50 μM, New England Biolabs, Beverly, Mass.), the Src inhibitor PP1 (5 μM, BioSource International, Camarillo, Calif.), the p38 inhibitor SB203580 (10^−4 M, Sigma Chemical Co., St. Louis, Mo.), the P13K inhibitor wortmannin (30 nM, Sigma Chemical Co., St. Louis, Mo.), the JNK inhibitor SP600125 (3 μM, EMD Biosciences, Inc, San Diego, Calif.) or the caspase-3 inhibitor Asp-Glu-Val-Asp-aldehide (DEVD-CHO) (50 nM, Biomol Research Lab., Inc., Plymouth Meeting, Pa.).
Following the treatment with the pro-apoptotic agents, cells were fixed for 8 minutes with neutral buffer formalin and stored at 4° C. until analyzed.
Cells were transiently transfected using Lipofectamine Plus (Gibco BRL, Gaithersburg, Md.) as previously described (Plotkin,L. I. et. al., J. Biol.Chem. 277:8648-8657 (2002) and Kousteni, S. et al., Cell, 104:719-730 (2001)). Briefly, cells were cultured in the absence of serum or antibiotics for 3 hours in the presence of 20 μl/ml Plus reagent and 10 μl/ml Lipofectamine together with […] of each of the following DNA constructs: pCDNA3 vector (obtained from Clontech, Palo Alto, Calif.), wild type FAK (provided by Dr. Sandro Aruffo, Bristol-Myers Squibb Pharmaceutical Research Institute, Princeton, N.J. (Chan,P. Y. et al., Methods Mol Biol. 2000.;99.(1.):109.-25. 269:20567-20574 (1994)), or wild type Pyk2, kinase deficient Pyk2 mutant or autophosphorylation deficient Pyk2 mutant (provided by Dr. Wen-Cheng Xiong, University of Alabama at Birmingham, Birmingham, Ala. (Xiong,W. and Parsons,J. T., J Cell Biol 139:529-53(1997)).

MLO-Y4 osteocytic cells [2] = assay: Quantification of cell detachment (number of cytoplasmic processes) in MLO-Y4 cells; assay type: cell-based, murine
Description: Apoptosis was induced in semiconfluent cultures by treatment for the indicated times with the glucocorticoid, dexamethasone (10^−6 M, Sigma Chemical Co., St. Louis, Mo.) or with etoposide (50 μM, Sigma Chemical Co., St. Louis, Mo.). […]
The effect of dexamethasone or etoposide on cell detachment was quantified by enumerating the number of cytoplasmic processes of MLO-Y4 cells expressing GFP. […]
Apoptosis and cell attachment were determined in the same cultures by examining nuclear morphology (FIG. 2A) and quantifying the number of cytoplasmic processes (FIG. 2B), respectively. Apoptosis was determined by examining nuclear fragmentation and chromatin condensation and cell detachment by quantifying the number of cytoplasmic processes in the same cells. […]

Compound | effect on dexamethasone (glucocorticoid)-induced apoptosis (MLO-Y4 osteocytic cells [1]) | also measured
CC(=O)OCOC(=O)CN(CC(=O)OCOC(C)=O)c1ccccc1OCCOc1ccccc1N(CC(=O)OCOC(C)=O)CC(=O)OCOC(C)=O [BAPTA-AM] | abolished | 
C[C@@H]1C[C@@H]([C@H](O)CC2CC(=O)NC(=O)C2)C(=O)[C@@H](C)C1 [cycloheximide] | dexamethasone was able to induce apoptosis | 
C/C=C(/C)C(=O)O[C@H]1C(C)=C2[C@H]([C@@H]1OC(=O)CCCCCCC)[C@@](C)(OC(C)=O)C[C@H](OC(=O)CCC)[C@@]1(O)[C@H]2OC(=O)[C@@]1(C)O [thapsigargin] | had no effect | 
COc1cc([C@@H]2c3cc4c(cc3[C@@H](O[C@@H]3O[C@@H]5CO[C@@H](C)O[C@H]5[C@H](O)[C@H]3O)[C@H]3COC(=O)[C@H]23)OCO4)cc(OC)c1O [etoposide] |  | apoptosis (nuclear fragmentation and chromatin condensation) (MLO-Y4 osteocytic cells [1]; 6 hours of treatment, dexamethasone 10^−6 M, etoposide 50 μM): induced apoptosis; apoptosis in cells overexpressing FAK (MLO-Y4 osteocytic cells [1]; transient transfection wild type FAK, 6 hours): not protected; apoptosis in cells overexpressing Pyk2 (MLO-Y4 osteocytic cells [1]; transient transfection wild type Pyk2, 6 hours): remained responsive; apoptosis in cells transfected with wild type Pyk2 vector (MLO-Y4 osteocytic cells [1]; transient transfection, co-transfected nGFP, 6 hours): exhibited apoptosis; number of cells exhibiting three or less cytoplasmic processes (cell attachment) (MLO-Y4 osteocytic cells [2]; dexamethasone: as early as after 1 h, etoposide: duration of the experiment): did not exhibit changes in cell attachment
Cc1c2oc3c(C)ccc(C(=O)N[C@@H]4C(=O)N[C@H](C(C)C)C(=O)N5CCC[C@H]5C(=O)N(C)CC(=O)N(C)[C@@H](C(C)C)C(=O)O[C@@H]4C)c3nc-2c(C(=O)N[C@@H]2C(=O)N[C@H](C(C)C)C(=O)N3CCC[C@H]3C(=O)N(C)CC(=O)N(C)[C@@H](C(C)C)C(=O)O[C@@H]2C)c(N)c1=O [actinomycin D] (I: T[dV]P[Sar][NMeV] / II: T[dV]P[Sar][NMeV]; ester I:1-I:C, II:1-II:C; linker I:N-II:N via Actinocin(9to1)) | dexamethasone was able to induce apoptosis | 
[Gd] [gadolinium] | abolished | 
Asp-Glu-Val-Asp-aldehide (DEVD-aldehyde) | abolished | effect on dexamethasone-induced changes in cell attachment (MLO-Y4 osteocytic cells [2]; inhibitor added 30 minute before dexamethasone 10^−6 M): did not reverse

Reference: patent US20060121499A1, “Methods of identifying glucocorticoids without the detrimental side effects of bone loss” (priority 2004, published 2006)
